Experiment [1] has as its target T1, calpain-1 (Homo sapiens, UniProt P07384).
T1 sequence (P07384 1-714): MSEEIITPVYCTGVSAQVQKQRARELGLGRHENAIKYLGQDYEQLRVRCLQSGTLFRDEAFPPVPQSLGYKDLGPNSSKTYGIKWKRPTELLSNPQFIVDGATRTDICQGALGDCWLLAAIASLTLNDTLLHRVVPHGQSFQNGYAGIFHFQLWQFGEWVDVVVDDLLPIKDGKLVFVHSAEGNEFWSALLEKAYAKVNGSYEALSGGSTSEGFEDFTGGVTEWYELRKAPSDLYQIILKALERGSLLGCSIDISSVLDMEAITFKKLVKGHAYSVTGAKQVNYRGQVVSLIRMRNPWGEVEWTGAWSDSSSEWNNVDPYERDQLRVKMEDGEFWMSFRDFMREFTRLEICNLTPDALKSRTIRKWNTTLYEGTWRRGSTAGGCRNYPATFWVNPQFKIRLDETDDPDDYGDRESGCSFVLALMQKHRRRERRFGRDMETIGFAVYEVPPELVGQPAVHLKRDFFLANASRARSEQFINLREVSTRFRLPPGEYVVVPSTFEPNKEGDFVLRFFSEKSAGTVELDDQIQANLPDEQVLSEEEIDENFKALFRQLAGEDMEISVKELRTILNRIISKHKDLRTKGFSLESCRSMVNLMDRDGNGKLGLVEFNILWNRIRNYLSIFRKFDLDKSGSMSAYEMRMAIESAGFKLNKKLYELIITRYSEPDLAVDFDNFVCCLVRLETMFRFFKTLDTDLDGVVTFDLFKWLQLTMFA
T1 sequence (P04632 1-268 partner): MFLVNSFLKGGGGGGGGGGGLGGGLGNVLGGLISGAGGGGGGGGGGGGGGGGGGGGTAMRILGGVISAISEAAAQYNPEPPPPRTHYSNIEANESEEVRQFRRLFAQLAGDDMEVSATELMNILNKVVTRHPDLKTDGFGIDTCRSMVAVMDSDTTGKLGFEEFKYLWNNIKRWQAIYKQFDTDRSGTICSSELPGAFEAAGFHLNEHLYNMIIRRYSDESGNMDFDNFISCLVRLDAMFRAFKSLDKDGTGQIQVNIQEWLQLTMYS
The note with it: Li et al, 1996; read-out: Ki for calpain-1 (μ-calpain), literature; cited from earlier work.

Experiment [2] deals with cultured cortical neurons. As to the kind of experiment: Bic- and 4-AP-induced neuroprotection against starvation, Hoechst staining. It counts as cell-based. The note with it: mCalp-I 200 nM. The source says:
Neuronal death was observed and quantified by Hoechst staining. 300-500 neurons were counted for each group in three to 6 independent experiments. *p<0.05; ns, no significant difference; one-way ANOVA followed by Bonferroni test. n=3-6. Error Bar indicates SEM
Neuronal death was observed and quantified by Hoechst staining. 300-500 neurons were counted for each group in three to 6 independent experiments. *p<0.05; ns, no significant difference; one-way ANOVA followed by Bonferroni test. n=3-6. Error Bar indicates SEM (FIG. 6).

The text below walks through data of patent US20190030114A1, “ISOFORM-SPECIFIC CALPAIN INHIBITORS, METHODS OF IDENTIFICATION, AND USES THEREOF” (WESTERN UNIVERSITY OF HEALTH SCIENCES, priority 2014, published 2019).

Regarding `CCC(NC(=O)C(CC(C)C)NC(=O)OCc1ccccc1)C(=O)C(=O)NCc1cc(OC)cc(OC)c1` (racemic) [Formula 1, Z-Leu-Abu-CONH—CH2-C6H3 (3, 5-(OMe)2)], the inhibitory constant (Ki) in experiment [1] was 2300 nM. For the same compound, in experiment [2], the “blocked Bic- and 4-AP-induced neuroprotection against starvation” value is “not”.

As usually defined, the Ki is a measure of affinity in units of concentration, obtained from inhibition or displacement.
